According to paper PMC11462456 (Chemical Science, 2024):

How the values were obtained:
[1] = Body weight change in A549 xenograft mice; format: in vivo, mouse; details: i.p.
Description: 4.7 Therapeutic anti-tumor evaluation
Animal experiments were carried out in accordance with the regulatory guidelines of the Ethics Committee of the Ghent University Hospital. 30 female Swiss Nude Immunodeficient mice (Crl:NU(Ico)-Foxn1nu) of 5 weeks-6 weeks old (Charles River) were subcutaneously injected with […] A549 (1:1 serum free DMEM medium: Matrigel (Corning)). 10 days post inoculation ,mice were randomized into five groups (6 mice/group) with equal average tumor volume and treatment was started: (1) the control group: Vehicle(20% PEG400 and 5% […]
2J2V group (0.1 mg/kg), (5) the 2J2V group(0.5 mg/kg).Mice were treated on Day 0, Day 2, Day 4, Day 11, Day 18 by intraperitoneal injection. Tumor growth was monitored every 3 days by caliper, and the tumor volume was calculated as 1/2 × length × width2. Body weight was monitored every 3 days by weighing scale. […]
The reduced […]
proteins were alkylated with 40 mM iodoacetamide (IAA) in the dark for 30 minutes. Then samples were acidified with 1.2% aqueous phosphoric acid and mixed with 6× volumes of 90% methanol, 100 mM TEAB, pH 7.1 (S-Trap binding buffer). The samples were loaded onto the (1 picture or pasted object on this page, not shown here)

HEK293 cells = assay: CellTiter-Glo 2D metabolic activity assay, HEK293; format: cell-based; details: Homo sapiens, 2D culture, 48 h
Description: Figure S5 Homo-degradation effect in Dual-ligand PROTACs. HEK293 cells were treated with all synthesized PROTACs or 2V-alkyne/2P-alkyne for 4 hours. Subsequently, cell lysates were prepared and the protein levels of CRBN or VHL E3 ligase were assessed by Western blotting. (A) Representative image of CRBN or VHL E3 ligase homo-degradation was screened for all PROTACs and commercial single-ligand PROTACs at a concentration of 0.1, 1 and 10 µM, respectively (equivalent volume of DMSO as control group). (B) Representative image of CRBN or VHL E3 ligase homo-degradation was screened for 2P-alkyne or 2V-alkyne at a concentration of 0.1, 1 and 10 µM, respectively (equivalent volume of DMSO as control group). Experiments were performed as three independent replicates.
4.4 Cell viability assay on 2D cells cultures
HEK293, HCT116, A549,andSKOV-3 cells were seeded in 96-well tissue culture plates at a density of 2000-3000 cells per well in 100 µl of growth medium and incubated overnight at 37 °C with 5% CO2. The following day, the cells were treated with various concentrations of compounds or 0.05% DMSO for 48 h. […] Luminescence readout (Gen5 Data Analysis Software v3.08.01) was performed to record luminescence. […]

A549 spheroids = assay: CellTiter-Glo 3D assay on spheroids; format: cell-based; details: Homo sapiens, 72 h, read-out: EC50, spheroid metabolic activity
Description: 4.5 Cell viability assay on 3D cell cultures
The single cell suspension containing 2.5 ×10^4 cells/ml of A549 or 2 ×10^4 cells/ml of HCT116 were seeded into the U-shaped, 384-well ULA plates (cat. no. MS-9384UZ, S-bio), each well containing 80 μl single cell suspension. The 384-well ULA plates were sealed with Breath-Easy semipermeable tape (cat. no. BEM-1, Diversified Biotech) to prevent evaporation. The spheroids were put into incubator and then cultured at 37 °C and 10% CO2. After 48h of spheroids formation, the spheroids were treated with various concentrations of compounds or 0.05% DMSO. After 72h treatment, each spheroid in the culture medium was pipetted into white micro-96-well plates (cat. no. 236108, ThermoFisher) and an equal volume of Cell Titer-Glo 3D (cat. no. G9683, Promega) reagent was added. Luminescence readouts were the same as described above for 2D culture.

SMILES	body weight change ([1]; 0.1 mg kg−1)	body weight change ([1]; 0.5 mg kg−1)	EC50 (HEK293 cells)	EC50 (A549 spheroids)
Cc1ncsc1-c1ccc(C(C)NC(=O)C2CC(O)CN2C(=O)C(NC(=O)COCCOCCNC(=O)CC(NC(=O)CCc2cn(CCOCCOCCOCCOCC(=O)NC(CC(=O)NCCOCCOCCNC(=O)CC3N=C(c4ccc(Cl)cc4)c4c(sc(C)c4C)-n4c(C)nnc43)C(=O)NCCOCCOCCNC(=O)CC3N=C(c4ccc(Cl)cc4)c4c(sc(C)c4C)-n4c(C)nnc43)nn2)C(=O)NCCOCCOCC(=O)NC(C(=O)N2CC(O)CC2C(=O)NC(C)c2ccc(-c3scnc3C)cc2)C(C)(C)C)C(C)(C)C)cc1 (stereo not shown) [2J2V]	no detectable decrease in body weight	slight body weight decrease		
Cc1ncsc1-c1ccc(CNC(=O)C2CC(O)CN2C(=O)C(NC(=O)COCCOCCOCCNC(=O)CC2N=C(c3ccc(Cl)cc3)c3c(sc(C)c3C)-n3c(C)nnc32)C(C)(C)C)cc1 (stereo not shown) [MZ1, reference compound]			> 10000 nM	80 nM
